Source: PubChem BioAssay AID2060894 (Molecular Pharmacology Branch, DTP, NCI, 2025)

Test system: K12877-001-R-J1-PDC complex spheroid viability
Test: Anticancer human tumor K12877-001-R-J1-PDC patient-derived lung adenocarcinoma cell line growth inhibition [RAS]
Details: for IC50: curve of first compound; for viability, T/C: stronger effect = lower value
Outline: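 Multi-cell-type spheroids: tumor cells plus HUVEC endothelial cells and mesenchymal stem cells. RAS-pathway inhibitors were combined with targeted agents, each dosed in half-log steps down from clinical Cmax, or from 10 microM when Cmax was unknown.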

[1] = second compound 0.000949 µM, first compound 0.0316 µM
[2] = second compound 0.000949 µM, first compound 0.1 µM
[3] = second compound 0.000949 µM, first compound 0.316 µM
[4] = second compound 0.000949 µM, first compound 1 µM
[5] = second compound 0.000949 µM, first compound 3.16 µM
[6] = second compound 0.000949 µM, first compound 10 µM
[7] = second compound 0.003 µM, first compound 0.0316 µM
[8] = second compound 0.003 µM, first compound 0.1 µM
[9] = second compound 0.003 µM, first compound 0.316 µM
[10] = second compound 0.003 µM, first compound 1 µM
[11] = second compound 0.003 µM, first compound 3.16 µM
[12] = second compound 0.003 µM, first compound 10 µM
[13] = second compound 0.00949 µM, first compound 0.0316 µM
[14] = second compound 0.00949 µM, first compound 0.1 µM
[15] = second compound 0.00949 µM, first compound 0.316 µM
[16] = second compound 0.00949 µM, first compound 1 µM
[17] = second compound 0.00949 µM, first compound 3.16 µM
[18] = second compound 0.00949 µM, first compound 10 µM
[19] = second compound 0.03 µM, first compound 0.0316 µM
[20] = second compound 0.03 µM, first compound 0.1 µM
[21] = second compound 0.03 µM, first compound 0.316 µM
[22] = second compound 0.03 µM, first compound 1 µM
[23] = second compound 0.03 µM, first compound 3.16 µM
[24] = second compound 0.03 µM, first compound 10 µM
[25] = second compound 0.0949 µM, first compound 0.0316 µM
[26] = second compound 0.0949 µM, first compound 0.1 µM
[27] = second compound 0.0949 µM, first compound 0.316 µM
[28] = second compound 0.0949 µM, first compound 1 µM
[29] = second compound 0.0949 µM, first compound 3.16 µM
[30] = second compound 0.0949 µM, first compound 10 µM
[31] = second compound 0.3 µM, first compound 0.0316 µM
[32] = second compound 0.3 µM, first compound 0.1 µM
[33] = second compound 0.3 µM, first compound 0.316 µM
[34] = second compound 0.3 µM, first compound 1 µM
[35] = second compound 0.3 µM, first compound 3.16 µM
[36] = second compound 0.3 µM, first compound 10 µM
[37] = second compound 0.000949 µM, first compound 0.00316 µM
[38] = second compound 0.000949 µM, first compound 0.01 µM
[39] = second compound 0.003 µM, first compound 0.00316 µM
[40] = second compound 0.003 µM, first compound 0.01 µM
[41] = second compound 0.00949 µM, first compound 0.00316 µM
[42] = second compound 0.00949 µM, first compound 0.01 µM
[43] = second compound 0.03 µM, first compound 0.00316 µM
[44] = second compound 0.03 µM, first compound 0.01 µM
[45] = second compound 0.0949 µM, first compound 0.00316 µM
[46] = second compound 0.0949 µM, first compound 0.01 µM
[47] = second compound 0.3 µM, first compound 0.00316 µM
[48] = second compound 0.3 µM, first compound 0.01 µM
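Also: spheroids exposed to agents for one week before readout.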
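For viability, T/C in this document: tumour cells co-cultured with HUVEC and mesenchymal stem cells in spheroids.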

CC(C)NCC(C(=O)N1CCN(c2ncnc3c2C(C)CC3O)CC1)c1ccc(Cl)cc1 (stereo not drawn) + CCn1c(-c2cccnc2C(C)OC)c2c3cc(ccc31)N1CCOC(CC(NC(=O)C(C(C)C)N(C)C(=O)C3(F)CCN(C(=O)C#CC(C)(C)N(C)C)CC3)C(=O)N3CCCC(N3)C(=O)OCC(C)(C)C2)C1
IC50 (second compound 0.000949 µM): 1.26 µM
IC50 (second compound 0.003 µM): 1.28 µM
IC50 (second compound 0.00949 µM): 1.43 µM
IC50 (second compound 0.03 µM): 0.956 µM
IC50 (second compound 0.0949 µM): 0.488 µM
IC50 (second compound 0.3 µM): 0.17 µM
viability, T/C [1]: 88.5%
viability, T/C [2]: 76.6%
viability, T/C [3]: 80.5%
viability, T/C [4]: 55.5%
viability, T/C [5]: 26.7%
viability, T/C [6]: 18.3%
viability, T/C [7]: 80.6%
viability, T/C [8]: 88%
viability, T/C [9]: 67.1%
viability, T/C [10]: 60.6%
viability, T/C [11]: 26.5%
viability, T/C [12]: 19.6%
viability, T/C [13]: 78.5%
viability, T/C [14]: 68.5%
viability, T/C [15]: 82.8%
viability, T/C [16]: 58.7%
viability, T/C [17]: 27.9%
viability, T/C [18]: 16%
viability, T/C [19]: 75.7%
viability, T/C [20]: 68.9%
viability, T/C [21]: 81.6%
viability, T/C [22]: 49%
viability, T/C [23]: 26.8%
viability, T/C [24]: 15.9%
viability, T/C [25]: 72.7%
viability, T/C [26]: 73.5%
viability, T/C [27]: 51.8%
viability, T/C [28]: 41.5%
viability, T/C [29]: 23.1%
viability, T/C [30]: 12.1%
viability, T/C [31]: 57.8%
viability, T/C [32]: 52.8%
viability, T/C [33]: 46.3%
viability, T/C [34]: 23.5%
viability, T/C [35]: 19%
viability, T/C [36]: 10.6%

CC(C)n1nc(-c2ccc3oc(N)nc3c2)c2c(N)ncnc21 + CCn1c(-c2cccnc2C(C)OC)c2c3cc(ccc31)N1CCOC(CC(NC(=O)C(C(C)C)N(C)C(=O)C3(F)CCN(C(=O)C#CC(C)(C)N(C)C)CC3)C(=O)N3CCCC(N3)C(=O)OCC(C)(C)C2)C1
IC50 (second compound 0.000949 µM): 0.00924 µM
IC50 (second compound 0.003 µM): 0.00695 µM
IC50 (second compound 0.00949 µM): 0.0082 µM
IC50 (second compound 0.03 µM): 0.0063 µM
IC50 (second compound 0.0949 µM): 0.00356 µM
IC50 (second compound 0.3 µM): 0.00137 µM
viability, T/C (second compound 0.000949 µM, first compound 0.000316 µM): 81.6%
viability, T/C (second compound 0.000949 µM, first compound 0.001 µM): 81.3%
viability, T/C [37]: 78.2%
viability, T/C [38]: 47.4%
viability, T/C [1]: 18.7%
viability, T/C [2]: 11.9%
viability, T/C (second compound 0.003 µM, first compound 0.000316 µM): 77.6%
viability, T/C (second compound 0.003 µM, first compound 0.001 µM): 80.9%
viability, T/C [39]: 66.2%
viability, T/C [40]: 41.8%
viability, T/C [7]: 20.4%
viability, T/C [8]: 11%
viability, T/C (second compound 0.00949 µM, first compound 0.000316 µM): 77.5%
viability, T/C (second compound 0.00949 µM, first compound 0.001 µM): 76.9%
viability, T/C [41]: 63.4%
viability, T/C [42]: 50%
viability, T/C [13]: 16.2%
viability, T/C [14]: 8.87%
viability, T/C (second compound 0.03 µM, first compound 0.000316 µM): 69.3%
viability, T/C (second compound 0.03 µM, first compound 0.001 µM): 69.6%
viability, T/C [43]: 59.1%
viability, T/C [44]: 44%
viability, T/C [19]: 18.4%
viability, T/C [20]: 7.89%
viability, T/C (second compound 0.0949 µM, first compound 0.000316 µM): 68.7%
viability, T/C (second compound 0.0949 µM, first compound 0.001 µM): 61.4%
viability, T/C [45]: 50%
viability, T/C [46]: 37.8%
viability, T/C [25]: 12.2%
viability, T/C [26]: 7.05%
viability, T/C (second compound 0.3 µM, first compound 0.000316 µM): 65%
viability, T/C (second compound 0.3 µM, first compound 0.001 µM): 53.1%
viability, T/C [47]: 39.8%
viability, T/C [48]: 28.8%
viability, T/C [31]: 12.6%
viability, T/C [32]: 6.48%

CC(Nc1ccc2c(c1)OCCn1cc(N3C(=O)OCC3C(F)F)nc1-2)C(N)=O (stereo not drawn) + CCn1c(-c2cccnc2C(C)OC)c2c3cc(ccc31)N1CCOC(CC(NC(=O)C(C(C)C)N(C)C(=O)C3(F)CCN(C(=O)C#CC(C)(C)N(C)C)CC3)C(=O)N3CCCC(N3)C(=O)OCC(C)(C)C2)C1
IC50 (second compound 0.000949 µM): 0.931 µM
IC50 (second compound 0.003 µM): 0.472 µM
IC50 (second compound 0.00949 µM): 0.312 µM
IC50 (second compound 0.03 µM): 0.571 µM
IC50 (second compound 0.0949 µM): 0.172 µM
IC50 (second compound 0.3 µM): 0.0817 µM
viability, T/C [1]: 73.5%
viability, T/C [2]: 69.8%
viability, T/C [3]: 55.3%
viability, T/C [4]: 51.5%
viability, T/C [5]: 37.5%
viability, T/C [6]: 19.3%
viability, T/C [7]: 74.8%
viability, T/C [8]: 66.8%
viability, T/C [9]: 48%
viability, T/C [10]: 40.3%
viability, T/C [11]: 44%
viability, T/C [12]: 19.2%
viability, T/C [13]: 76.6%
viability, T/C [14]: 53.7%
viability, T/C [15]: 50.7%
viability, T/C [16]: 43.6%
viability, T/C [17]: 34%
viability, T/C [18]: 22.3%
viability, T/C [19]: 65.8%
viability, T/C [20]: 62.9%
viability, T/C [21]: 55.2%
viability, T/C [22]: 44.8%
viability, T/C [23]: 30.5%
viability, T/C [24]: 16.1%
viability, T/C [25]: 66.8%
viability, T/C [26]: 52%
viability, T/C [27]: 44.6%
viability, T/C [28]: 34.4%
viability, T/C [29]: 28%
viability, T/C [30]: 13.4%
viability, T/C [31]: 65.5%
viability, T/C [32]: 41.2%
viability, T/C [33]: 35.7%
viability, T/C [34]: 28.1%
viability, T/C [35]: 21.8%
viability, T/C [36]: 8.8%

O=C(c1ccc(F)c(F)c1Nc1ccc(I)cc1F)N1CC(O)([C@@H]2CCCCN2)C1 + CCn1c(-c2cccnc2C(C)OC)c2c3cc(ccc31)N1CCOC(CC(NC(=O)C(C(C)C)N(C)C(=O)C3(F)CCN(C(=O)C#CC(C)(C)N(C)C)CC3)C(=O)N3CCCC(N3)C(=O)OCC(C)(C)C2)C1
IC50 (second compound 0.000949 µM): 0.3 µM
IC50 (second compound 0.003 µM): 0.239 µM
IC50 (second compound 0.00949 µM): 0.144 µM
IC50 (second compound 0.03 µM): 0.227 µM
IC50 (second compound 0.0949 µM): 0.129 µM
IC50 (second compound 0.3 µM): 0.0587 µM
viability, T/C [37]: 81.2%
viability, T/C [38]: 77.5%
viability, T/C [1]: 80.8%
viability, T/C [2]: 66.5%
viability, T/C [3]: 49.9%
viability, T/C [4]: 35.4%
viability, T/C [39]: 72.6%
viability, T/C [40]: 69.8%
viability, T/C [7]: 67.5%
viability, T/C [8]: 66.8%
viability, T/C [9]: 44.6%
viability, T/C [10]: 28.6%
viability, T/C [41]: 71.1%
viability, T/C [42]: 62.6%
viability, T/C [13]: 70.7%
viability, T/C [14]: 55.4%
viability, T/C [15]: 37.7%
viability, T/C [16]: 32.7%
viability, T/C [43]: 66.1%
viability, T/C [44]: 72.8%
viability, T/C [19]: 73.1%
viability, T/C [20]: 59%
viability, T/C [21]: 46.3%
viability, T/C [22]: 28.9%
viability, T/C [45]: 76.7%
viability, T/C [46]: 64.5%
viability, T/C [25]: 69.5%
viability, T/C [26]: 45.9%
viability, T/C [27]: 44.3%
viability, T/C [28]: 33.9%
viability, T/C [47]: 70%
viability, T/C [48]: 65.6%
viability, T/C [31]: 52.1%
viability, T/C [32]: 45.6%
viability, T/C [33]: 40.1%
viability, T/C [34]: 31%
